Data on 46 compounds can be found in patent publication US5097013A, “Novel peptides possessing a macrophage chemotactic activity” (Kao Corporation, priority 1988, dated 1992).

Square brackets hold non-standard residues; d marks the D form. Peptide text beside a SMILES is read from it. * marks the point of attachment. Fmoc = O=C(OCC1c2ccccc2-c2ccccc21)*; dNle = CCCC[C@@H](N)C(=O)O

The test system of the first assay is macrophage (peritoneal exudate cells). As to the kind of experiment: Macrophage chemotactic activity, 48 well chemotaxis chamber. It counts as cell-based, guinea pig. The note with it: Table 2; test described in Example 64; relative scale, Compound No. 1 = 100. The procedure:
Macrophage chemotactic activity in the examples was determined as follows.
Peritoneal exudate cells (usually more than 95% were macrophage) collected from guinea pig in which liquid paraffin had previously been peritoneally injected 3 or 4 days before were used as macrophage in a cell concentration of 2×10^6 /ml.
A sample which activity was to be determined was charged in lower wells of a 48 well chemotaxis chamber and a polycarbonate membrane having a pore size of 5 μm was put thereon, and the macrophage suspension was charged in upper wells followed by incubation at 37° C. for 90 minutes in a CO2 incubator. After the incubation, adherent cells on the non-chemotactic surface was removed, fixed and subjected to Giemsa staining and then to inclusion treatment. Then, the cells on the chemotactic surface were microscopically (×400) counted and the cell count was made MCF activity.
The peptide synthesized in Example 5 was dissolved in 5 mM MgCl2 and the solution was suitably diluted with 0.5% FCS-containing Hanks' medium.
Take `CC(C)C[C@H](NC(=O)[C@H](Cc1c[nH]c2ccccc12)NC(=O)OCC1c2ccccc2-c2ccccc21)C(=O)NCC(=O)N[C@@H](CCCNC(=N)N)C(=O)N[C@@H](CCC(=O)O)C(=O)N[C@@H](CC(=O)O)C(=O)NCC(=O)N[C@@H](CO)C(=O)N[C@@H](CCC(=O)O)C(=O)O` [Compound 13, Fmoc-L-Trp-L-Leu-Gly-L-Arg-L-Glu-L-Asp-Gly-L-Ser-L-Glu-OH] (Fmoc-WLGREDGSE-OH): the “Activity (macrophage chemotactic activity)” value was < 10.
On the same count and under the same terms, the value for `CC(C)C[C@H](NC(=O)[C@@H](N)Cc1c[nH]c2ccccc12)C(=O)NCC(=O)N[C@@H](CCCNC(=N)N)C(=O)O` [Compound 27, H-L-Trp-L-Leu-Gly-L-Arg-OH] (H-WLGR-OH) was < 10; that for `CC(C)C[C@H](NC(=O)[C@H](Cc1c[nH]c2ccccc12)NC(=O)OCC1c2ccccc2-c2ccccc21)C(=O)NCC(=O)N[C@@H](CCCNC(=N)N)C(=O)N[C@@H](CCC(=O)O)C(=O)N[C@@H](CC(=O)O)C(=O)O` [Compound 29, Fmoc-L-Trp-L-Leu-Gly-L-Arg-L-Glu-L-Asp-OH] (Fmoc-WLGRED-OH) was < 10; that for `CC(C)C[C@H](NC(=O)[C@@H](Cc1c[nH]c2ccccc12)NC(=O)OCC1c2ccccc2-c2ccccc21)C(=O)NCC(=O)N[C@@H](CCCNC(=N)N)C(=O)N[C@@H](CCC(=O)O)C(=O)N[C@@H](CC(=O)O)C(=O)O` [Compound 30, Fmoc-D-Trp-L-Leu-Gly-L-Arg-L-Glu-L-Asp-OH] (Fmoc-[dW]LGRED-OH) was < 10.
On the same count and under the same terms, then `CC(C)C[C@@H](NC(=O)[C@H](Cc1c[nH]c2ccccc12)NC(=O)OCC1c2ccccc2-c2ccccc21)C(=O)NCC(=O)N[C@@H](CCCNC(=N)N)C(=O)N[C@@H](CCC(=O)O)C(=O)N[C@@H](CC(=O)O)C(=O)O` [Compound 32, Fmoc-L-Trp-D-Leu-Gly-L-Arg-L-Glu-L-Asp-OH] (Fmoc-W[dL]GRED-OH), with < 10; and `CC(C)C[C@H](NC(=O)[C@H](Cc1c[nH]c2ccccc12)NC(=O)OCC1c2ccccc2-c2ccccc21)C(=O)NCC(=O)N[C@@H](CCCNC(=N)N)C(=O)N[C@H](CCC(=O)O)C(=O)N[C@@H](CC(=O)O)C(=O)O` [Compound 34, Fmoc-L-Trp-L-Leu-Gly-L-Arg-D-Glu-L-Asp-OH] (Fmoc-WLGR[dE]D-OH), with < 10.
Still for that read-out and setting: then `CC(C)C[C@H](NC(=O)[C@H](Cc1c[nH]c2ccccc12)NC(=O)OCC1c2ccccc2-c2ccccc21)C(=O)NCC(=O)N[C@@H](CCCNC(=N)N)C(=O)N[C@@H](CCC(=O)O)C(=O)N[C@H](CC(=O)O)C(=O)O` [Compound 39, Fmoc-L-Trp-L-Leu-Gly-L-Arg-L-Glu-D-Asp-OH] (Fmoc-WLGRE[dD]-OH), with 10; and H-FLGREDGSE-OH [Compound 7], with < 10; and H-KWLGREDGSE-OH [Compound 3], with 80.
For “H-L-Glu-L-Asp-Gly-L-Ser-L-Glu-OH [Compound 25]”, the “Activity (macrophage chemotactic activity)” value is given as < 10.
On to “H-L-Trp-L-AIa-Gly-L-Arg-L-Glu-L-Asp-Gly-L-Ser-L-Glu-NH2 [Compound 44]”, for which the “Activity (macrophage chemotactic activity)” value was < 10.
Same read-out and setting: then “H-L-Trp-L-Leu-Gly-L-Arg-L-Glu-OH [Compound 24]”, with < 10; and H-LGREDGSE-OH [Compound 51], with < 10; and H-MWLGRED-OH [Compound 47], with < 10.
The same measure, in the same setting: the value for H-WAGRED-OH [Compound 42] was < 10.
On the same count and under the same terms, the value for H-WAGREDGSE-OH [Compound 9] was < 10; that for H-WGGREDGSE-OH [Compound 52] was < 10; that for H-WIIREDGSE-OH [Compound 43] was < 10.
Turning to H-WLGKEDGSE-OH [Compound 8], the “Activity (macrophage chemotactic activity)” value is on record as < 10.
H-WLGLEDGSE-OH [Compound 49]: the “Activity (macrophage chemotactic activity)” value was determined as 10.
On the same count and under the same terms, then H-WLGRED-NH2 [Compound 26], with 10; and H-WLGRED-OH [Compound 23], with 10; and H-WLGREDG-OH [Compound 22], with < 10.
Consider H-WLGREDGAE-OH [Compound 20], for which the “Activity (macrophage chemotactic activity)” value was < 10.
Same read-out and setting: the value for H-WLGREDGCE-OH [Compound 17] was < 10; that for H-WLGREDGLL-NH2 [Compound 46] was < 10.
Same read-out and setting: then H-WLGREDGS-OH [Compound 21], with 10; and H-WLGREDGSD-OH [Compound 4], with 10; and H-WLGREDGSE-NH2 [Compound 12], with < 10.
For “H-WLGREDGSE-OH [Compound 1, H-L-Trp-L-Leu-Gly-L-Arg-L-Glu-L-Asp-Gly-L-Ser-L-Glu-OH]”, the “Activity (macrophage chemotactic activity)” value is 100.
H-WLGREDGSQ-OH [Compound 28]: the “Activity (macrophage chemotactic activity)” value is recorded as < 10.
Same read-out and setting: the value for H-WLGREDG[dS]E-OH [Compound 36] was < 10.
Same read-out and setting: the value for H-WLGREEGS-OH [Compound 38] was < 10; that for H-WLGRENGSE-OH [Compound 5] was < 10.
The same measure, in the same setting: the value for “H-WLGRGDGSE-OH [Compound 48, H-L-Trp-L-Leu-Gly-L-Arg-Gly-L-Asp-Gly-L-Ser-L-Glu-OH]” was < 10.
With H-WLGRQDGSE-OH [Compound 2], the “Activity (macrophage chemotactic activity)” value came to 80.
Same read-out and setting: then “H-WLGRQNGSQ-NH2 [Compound 11, H-L-Trp-L-Leu-Gly-L-Arg-L-Gln-L-Asn-Gly-L-Ser-L-Gln-NH2]”, with < 10; and H-WLGR[dE]DGSE-OH [Compound 41], with < 10; and H-WLGYEDGSE-OH [Compound 18], with 50.
Regarding H-WLG[dR]EDGSE-OH [Compound 14], the “Activity (macrophage chemotactic activity)” value came to 80.
On the same count and under the same terms, the value for H-WLIREDGSE-OH [Compound 6] was < 10; that for H-WPREDGSE-OH [Compound 10] was < 10.
On the same count and under the same terms, the value for H-WVREDGSE-OH [Compound 50] was < 10; that for H-W[dL]GREDGSE-OH [Compound 37] was < 10; that for H-W[dNle]GREDGSE-OH [Compound 15] was < 10.
On to H-[dW]LGREDGSE-OH [Compound 16], for which the “Activity (macrophage chemotactic activity)” value was < 10.

Staying with this assay, now noted: dissolved in 5 mM MgCl2, diluted with 0.5% FCS-containing Hanks' medium.
As to “H-WLGREDGSE-OH [Compound 1, H-L-Trp-L-Leu-Gly-L-Arg-L-Glu-L-Asp-Gly-L-Ser-L-Glu-OH]”, the “macrophage chemotactic activity (in words)” value is listed as “high activities”.

Staying with this assay, now noted: relative activity, Table 1 (culture supernatant of hybridoma MCF-A51 = 100.0, medium alone 10.0); 3 × 10^-8 M; dissolved in 5 mM MgCl2, diluted with 0.5% FCS-containing Hanks' medium.
As to “H-WLGREDGSE-OH [Compound 1, H-L-Trp-L-Leu-Gly-L-Arg-L-Glu-L-Asp-Gly-L-Ser-L-Glu-OH]”, the “Macrophage Chemotactic Activity” value came to 41.4.
